Key:
cardiac fibroblasts = test: Mechanical tests of tissue model rings cultured with MMP inhibitor; format: cell-based; conditions: 50 μM GM6001 for 6 days
Description: The tissue models made using cardiac fibroblasts are incubated with 50 .μM GM6001 for 6 days. The tissue culture medium is replenished every other day with fresh medium containing GM6001. The tissue model rings were subjected to mechanical tests as described above.

MMPs = conditions: purified system; cited from earlier work
animals = conditions: in vivo; cited from earlier work

Structure (SMILES): CNC(=O)[C@H](Cc1c[nH]c2ccccc12)NC(=O)[C@@H](CC(=O)NO)CC(C)C [GM6001, N-[(2R)-2-(Hydroxamid-ocarbonylmethyl)-4-methylpentanoyl]-L-tryptophan methylamide]
- mechanical properties of tissue model rings compared to controls (cardiac fibroblasts): significant reduction
- Ki values for different MMPs (MMPs): around nmol/l
- concentration of inhibitor at which effects in animals can be observed (animals): sub mmol/l
